Test results as given in paper PMC10150365 (Journal of Medicinal Chemistry, 2023).

Tests used:
Experiment in all cases: Cerep SafetyScreen-87
Settings in all cases: n=2
Melanocortin MC4 = target: T1, Melanocortin MC4 (Homo sapiens, UniProt P32245); type: binding
T1 construct: purchased Eurofins Cerep/Panlabs SafetyScreen-87

Endothelin ETA = target: T2, Endothelin ETA (Homo sapiens, UniProt P25101); type: binding
T2 construct: purchased Eurofins Cerep/Panlabs SafetyScreen-87

[1] = target: T3, Protein Tyrosine Kinase, Insulin Receptor (Homo sapiens, UniProt P06213); type: biochemical
T3 construct: purchased Eurofins Cerep/Panlabs SafetyScreen-87

[2] = target: T4, Transporter, Serotonin (5-Hydroxytryptamine) (SERT) (Homo sapiens, UniProt P31645); type: binding
T4 construct: purchased Eurofins Cerep/Panlabs SafetyScreen-87
T4 sequence (P31645 whole entry): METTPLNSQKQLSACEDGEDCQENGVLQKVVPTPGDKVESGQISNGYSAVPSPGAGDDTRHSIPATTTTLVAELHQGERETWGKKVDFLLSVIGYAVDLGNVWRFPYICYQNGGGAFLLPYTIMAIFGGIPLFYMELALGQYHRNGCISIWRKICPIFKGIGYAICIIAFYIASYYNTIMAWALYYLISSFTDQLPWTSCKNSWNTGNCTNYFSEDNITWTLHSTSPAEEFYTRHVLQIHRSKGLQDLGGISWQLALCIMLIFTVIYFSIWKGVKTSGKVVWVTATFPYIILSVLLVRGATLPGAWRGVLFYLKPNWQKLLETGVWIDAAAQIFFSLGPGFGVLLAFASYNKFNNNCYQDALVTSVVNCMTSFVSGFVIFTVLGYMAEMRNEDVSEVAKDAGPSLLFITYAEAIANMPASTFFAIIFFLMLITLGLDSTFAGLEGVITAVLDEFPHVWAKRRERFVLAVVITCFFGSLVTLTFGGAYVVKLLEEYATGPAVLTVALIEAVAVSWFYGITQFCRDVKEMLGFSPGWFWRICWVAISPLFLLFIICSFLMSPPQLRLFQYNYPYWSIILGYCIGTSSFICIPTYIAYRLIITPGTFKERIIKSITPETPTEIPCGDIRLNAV

Melanocortin MC1 = target: T5, Melanocortin MC1 (Homo sapiens, UniProt Q01726); type: binding
T5 construct: purchased Eurofins Cerep/Panlabs SafetyScreen-87
T5 sequence (Q01726 whole entry): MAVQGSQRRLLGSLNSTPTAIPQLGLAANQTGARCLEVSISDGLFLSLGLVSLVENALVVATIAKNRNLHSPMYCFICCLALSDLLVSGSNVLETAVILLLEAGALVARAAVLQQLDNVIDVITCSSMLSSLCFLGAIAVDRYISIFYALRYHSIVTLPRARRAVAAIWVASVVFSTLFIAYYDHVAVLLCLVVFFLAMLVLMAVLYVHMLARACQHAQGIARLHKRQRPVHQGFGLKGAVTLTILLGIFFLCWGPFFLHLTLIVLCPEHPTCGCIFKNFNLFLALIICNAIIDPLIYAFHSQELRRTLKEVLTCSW

Cholecystokinin (CCKB) = target: T6, Cholecystokinin (CCKB) (Homo sapiens, UniProt P32239); type: binding
T6 construct: purchased Eurofins Cerep/Panlabs SafetyScreen-87
T6 sequence (P32239 whole entry): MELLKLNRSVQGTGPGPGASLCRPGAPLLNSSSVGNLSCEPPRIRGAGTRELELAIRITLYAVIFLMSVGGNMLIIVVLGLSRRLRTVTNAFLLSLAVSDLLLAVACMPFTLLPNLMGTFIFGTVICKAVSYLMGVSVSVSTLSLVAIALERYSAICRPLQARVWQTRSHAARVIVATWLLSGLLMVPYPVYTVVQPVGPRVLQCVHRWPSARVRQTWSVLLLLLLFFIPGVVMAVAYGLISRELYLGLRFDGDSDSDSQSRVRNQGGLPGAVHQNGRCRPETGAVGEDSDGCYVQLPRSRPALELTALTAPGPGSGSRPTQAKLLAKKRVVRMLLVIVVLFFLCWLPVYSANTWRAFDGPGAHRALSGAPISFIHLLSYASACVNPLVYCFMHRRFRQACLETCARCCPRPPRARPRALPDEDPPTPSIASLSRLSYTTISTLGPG

Muscarinic M2 = target: T7, Muscarinic M2 (Homo sapiens, UniProt P08172); type: binding
T7 construct: purchased Eurofins Cerep/Panlabs SafetyScreen-87

PPARγ = target: T8, PPARγ (Homo sapiens, UniProt P37231); type: binding
T8 construct: purchased Eurofins Cerep/Panlabs SafetyScreen-87
T8 sequence (P37231 whole entry): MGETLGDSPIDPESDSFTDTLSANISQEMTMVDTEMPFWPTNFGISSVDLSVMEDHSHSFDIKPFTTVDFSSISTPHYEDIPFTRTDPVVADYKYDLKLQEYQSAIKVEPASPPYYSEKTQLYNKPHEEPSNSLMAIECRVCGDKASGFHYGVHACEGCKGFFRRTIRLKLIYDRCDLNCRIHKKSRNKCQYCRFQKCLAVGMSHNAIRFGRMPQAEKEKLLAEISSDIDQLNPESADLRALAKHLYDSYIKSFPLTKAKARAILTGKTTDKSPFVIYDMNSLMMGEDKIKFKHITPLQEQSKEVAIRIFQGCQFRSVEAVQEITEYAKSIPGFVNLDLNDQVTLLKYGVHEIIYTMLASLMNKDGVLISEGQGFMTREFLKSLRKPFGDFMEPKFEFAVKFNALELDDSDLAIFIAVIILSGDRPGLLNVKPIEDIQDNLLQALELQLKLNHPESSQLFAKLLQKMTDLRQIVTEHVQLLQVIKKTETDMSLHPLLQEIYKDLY

Adrenergic α1D = target: T9, Adrenergic α1D (Homo sapiens, UniProt P25100); type: binding
T9 construct: purchased Eurofins Cerep/Panlabs SafetyScreen-87

Adrenergic α1A = target: T10, Adrenergic α1A (Rattus norvegicus, UniProt P43140); type: binding
T10 construct: purchased Eurofins Cerep/Panlabs SafetyScreen-87
T10 sequence (P43140 whole entry): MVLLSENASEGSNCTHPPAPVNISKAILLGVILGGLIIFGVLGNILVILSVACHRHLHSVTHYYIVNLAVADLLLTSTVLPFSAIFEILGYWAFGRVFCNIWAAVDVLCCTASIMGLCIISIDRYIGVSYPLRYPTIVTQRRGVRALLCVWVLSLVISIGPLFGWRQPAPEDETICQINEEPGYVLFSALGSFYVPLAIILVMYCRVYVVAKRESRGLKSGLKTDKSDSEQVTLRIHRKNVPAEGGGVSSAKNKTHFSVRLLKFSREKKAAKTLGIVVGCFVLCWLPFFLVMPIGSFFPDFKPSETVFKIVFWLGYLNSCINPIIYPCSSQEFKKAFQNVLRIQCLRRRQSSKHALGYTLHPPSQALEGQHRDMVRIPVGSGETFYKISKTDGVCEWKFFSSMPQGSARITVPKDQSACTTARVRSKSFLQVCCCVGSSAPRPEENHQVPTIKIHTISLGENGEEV

Adrenergic β2 = target: T11, Adrenergic β2 (Homo sapiens, UniProt P07550); type: binding
T11 construct: purchased Eurofins Cerep/Panlabs SafetyScreen-87

Histamine H1 = target: T12, Histamine H1 (Homo sapiens, UniProt P35367); type: binding
T12 construct: purchased Eurofins Cerep/Panlabs SafetyScreen-87

Muscarinic M3 = target: T13, Muscarinic M3 (Homo sapiens, UniProt P20309); type: binding
T13 construct: purchased Eurofins Cerep/Panlabs SafetyScreen-87
T13 sequence (P20309 whole entry): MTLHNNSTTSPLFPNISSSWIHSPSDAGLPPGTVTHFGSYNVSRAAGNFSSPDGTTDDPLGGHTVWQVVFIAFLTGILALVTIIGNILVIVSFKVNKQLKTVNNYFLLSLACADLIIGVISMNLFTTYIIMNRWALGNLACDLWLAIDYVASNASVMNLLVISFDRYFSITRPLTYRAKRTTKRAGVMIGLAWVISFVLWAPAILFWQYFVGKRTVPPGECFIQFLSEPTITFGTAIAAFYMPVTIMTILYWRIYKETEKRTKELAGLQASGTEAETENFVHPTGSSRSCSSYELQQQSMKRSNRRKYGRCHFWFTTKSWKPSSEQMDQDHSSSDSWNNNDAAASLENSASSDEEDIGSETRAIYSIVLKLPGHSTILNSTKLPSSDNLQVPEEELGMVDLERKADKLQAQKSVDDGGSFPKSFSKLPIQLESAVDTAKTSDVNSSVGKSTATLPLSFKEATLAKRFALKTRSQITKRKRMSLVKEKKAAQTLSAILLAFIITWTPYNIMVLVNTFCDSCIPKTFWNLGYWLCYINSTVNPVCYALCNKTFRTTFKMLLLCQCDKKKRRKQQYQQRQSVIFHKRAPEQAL

Cannabinoid CB1 = target: T14, Cannabinoid CB1 (Homo sapiens, UniProt P21554); type: binding
T14 construct: purchased Eurofins Cerep/Panlabs SafetyScreen-87
T14 sequence (P21554 whole entry): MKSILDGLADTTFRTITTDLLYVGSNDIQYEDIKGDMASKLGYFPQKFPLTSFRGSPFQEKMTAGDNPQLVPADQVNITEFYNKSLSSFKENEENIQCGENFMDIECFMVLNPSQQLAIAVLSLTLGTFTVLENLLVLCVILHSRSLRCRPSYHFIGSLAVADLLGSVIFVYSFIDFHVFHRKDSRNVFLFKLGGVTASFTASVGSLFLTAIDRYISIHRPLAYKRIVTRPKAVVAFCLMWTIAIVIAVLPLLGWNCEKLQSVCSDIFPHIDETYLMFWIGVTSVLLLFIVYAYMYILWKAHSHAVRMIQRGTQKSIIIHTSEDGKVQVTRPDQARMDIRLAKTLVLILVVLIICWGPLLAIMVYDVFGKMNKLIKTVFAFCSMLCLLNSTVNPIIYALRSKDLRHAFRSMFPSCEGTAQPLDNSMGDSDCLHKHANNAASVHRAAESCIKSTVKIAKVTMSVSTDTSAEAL

Cannabinoid CB2 = target: T15, Cannabinoid CB2 (Homo sapiens, UniProt P34972); type: binding
T15 construct: purchased Eurofins Cerep/Panlabs SafetyScreen-87
T15 sequence (P34972 whole entry, looked up): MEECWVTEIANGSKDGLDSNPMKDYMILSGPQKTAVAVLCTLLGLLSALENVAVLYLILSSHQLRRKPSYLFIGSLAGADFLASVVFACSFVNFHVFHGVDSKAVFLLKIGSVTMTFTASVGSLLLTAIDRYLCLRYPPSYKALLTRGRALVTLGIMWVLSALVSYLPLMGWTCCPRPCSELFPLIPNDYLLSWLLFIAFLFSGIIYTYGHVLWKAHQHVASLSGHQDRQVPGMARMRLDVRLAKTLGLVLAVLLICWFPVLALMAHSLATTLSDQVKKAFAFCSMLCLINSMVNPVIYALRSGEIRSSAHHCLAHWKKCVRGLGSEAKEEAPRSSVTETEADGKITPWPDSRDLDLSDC

Cyclooxigenase COX-1 = target: T16, Cyclooxigenase COX-1 (Homo sapiens, UniProt P23219); type: biochemical
T16 construct: purchased Eurofins Cerep/Panlabs SafetyScreen-87
T16 sequence (P23219 24-599): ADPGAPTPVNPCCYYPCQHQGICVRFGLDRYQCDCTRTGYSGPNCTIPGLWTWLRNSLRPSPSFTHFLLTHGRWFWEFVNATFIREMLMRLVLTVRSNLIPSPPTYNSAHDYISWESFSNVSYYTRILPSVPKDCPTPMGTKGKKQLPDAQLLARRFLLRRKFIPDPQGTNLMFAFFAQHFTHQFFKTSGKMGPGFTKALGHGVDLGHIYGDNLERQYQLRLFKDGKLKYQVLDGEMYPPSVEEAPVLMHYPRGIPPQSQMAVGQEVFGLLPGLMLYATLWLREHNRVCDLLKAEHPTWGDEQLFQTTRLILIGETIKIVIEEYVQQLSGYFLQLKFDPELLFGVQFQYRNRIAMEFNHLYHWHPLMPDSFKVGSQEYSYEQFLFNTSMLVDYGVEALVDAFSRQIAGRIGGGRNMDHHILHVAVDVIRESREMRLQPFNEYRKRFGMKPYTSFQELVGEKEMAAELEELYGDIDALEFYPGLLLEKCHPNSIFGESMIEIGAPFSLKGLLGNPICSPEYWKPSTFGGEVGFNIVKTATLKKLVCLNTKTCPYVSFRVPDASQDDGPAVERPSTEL

T2 sequence (P25101 21-427): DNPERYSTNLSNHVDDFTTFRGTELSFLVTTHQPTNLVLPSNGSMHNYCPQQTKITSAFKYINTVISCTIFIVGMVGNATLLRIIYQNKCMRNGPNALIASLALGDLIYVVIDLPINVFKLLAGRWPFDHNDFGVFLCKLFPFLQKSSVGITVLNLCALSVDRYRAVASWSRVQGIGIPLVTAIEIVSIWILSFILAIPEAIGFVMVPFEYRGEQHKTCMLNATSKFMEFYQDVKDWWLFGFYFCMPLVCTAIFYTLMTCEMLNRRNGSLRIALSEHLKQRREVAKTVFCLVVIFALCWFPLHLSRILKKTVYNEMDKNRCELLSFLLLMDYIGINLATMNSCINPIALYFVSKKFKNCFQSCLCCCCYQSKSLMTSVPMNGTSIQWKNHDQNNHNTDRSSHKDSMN

CCN1CCN(Cc2ccc3cc(C(=O)Nc4cc(NC(=O)c5ccc6c(c5)OCCO6)ccc4F)ccc3n2)CC1 [Compound 22, N-(5-(2,3-Dihydrobenzo[b][1,4]dioxine-6-carboxamido)-2-fluorophenyl)-2-((4-ethylpiperazin-1-yl)methyl)quinoline-6-carboxamide]
inhibition at 10 µM (Melanocortin MC4): 2% | inhibition at 10 µM (Endothelin ETA): -2% | inhibition at 10 µM [1]: -7% | inhibition at 10 µM [2]: 25% | inhibition at 10 µM (Melanocortin MC1): -3% | inhibition at 10 µM (Cholecystokinin (CCKB)): -4% | inhibition at 10 µM (Muscarinic M2): 52% | inhibition at 10 µM (PPARγ): 11% | inhibition at 10 µM (Adrenergic α1D): 25% | inhibition at 10 µM (Adrenergic α1A): 38% | inhibition at 10 µM (Adrenergic β2): 12% | inhibition at 10 µM (Histamine H1): 36% | inhibition at 10 µM (Muscarinic M3): 30% | inhibition at 10 µM (Cannabinoid CB1): 9% | inhibition at 10 µM (Cannabinoid CB2): 79% | inhibition at 10 µM (Cyclooxigenase COX-1): -24%
